Test results reported in patent US8815872B2, “Macrocyclics pyrimidines as aurora kinase inhibitors” (Merck Patent GmbH, priority 2008, dated 2014).

What was measured:
Type in all cases: biochemical
DYRK3 = target: T1, DYRK3 (Homo sapiens, UniProt O43781); assay: Other kinases, inhibition at 1 μM (Table 3)
T1 construct: purchased Caliper Life Sciences
Description: (§1) The Aurora and other kinase assays described here were performed on two Caliper Life Sciences systems, the LC3000 and the Desktop Profiler. These provide data on enzyme activity via measurement of the relative amounts of phosphorylated or unphosphorylated fluorescently labelled substrate peptide at the end of an enzymatic reaction. These different states of peptide are resolved by applying a potential difference across the sample. The presence of a charged phosphate group on the product (as opposed to the substrate) causes a different peptide mobility between the two peptides. This is visualized by excitation of a fluorescent label on the substrate and product peptides and represented as peaks within the analysis software.
(§2) The Desktop Profiler utilizes the same principal as the LC 3000 for calculating percentage conversion of a substrate to product. Caliper Life Sciences provided proprietary flash frozen pre-made 384 well plates containing selected kinases. Each column in the 384 well plate contained a particular selected kinase. A second plate, the ‘substrate plate’ contained a mix of fluorescently labeled peptide substrate and ATP. These were arranged in columns so that transfer for substrate plate to enzyme plate provided the correct enzyme with the correct substrate/ATP concentration.
(§3) Compounds were added to a thawed enzyme plate in the desired format, in single concentrations. Reactions were initiated by transfer of the ubstrate/ATP mix from the substrate plate. The enzyme plate was incubated for 90 mins at 25 °C. The reaction was stopped by addition of […] of Stop Buffer (100 mM HEPES pH 7.5, 0.015% Brij-35, 10 mM EDTA (Sigma, E7889)).
(§4) Plates were read in a manner identical to that of the LC3000, and the ratio between substrate and product peaks provided the activity of the enzyme in that well. This was best represented by a plate heat map which colors each well by percent inhibition as compared to positive and negative controls (no inhibitors and no ATP respectively).

FGFR1 = target: T2, FGFR1 (Homo sapiens, UniProt P11362); assay: Other kinases, inhibition at 1 μM (Table 3)
T2 construct: purchased Caliper Life Sciences
Description: as §1, §2, §3, §4

MKK1 = target: T3, MKK1 (Homo sapiens, UniProt Q02750); assay: Other kinases, inhibition at 1 μM (Table 3)
T3 construct: purchased Caliper Life Sciences
Description: as §1, §2, §3, §4

PRK2 = target: T4, PRK2 (Homo sapiens, UniProt Q16513); assay: Other kinases, inhibition at 1 μM (Table 3)
T4 construct: purchased Caliper Life Sciences
Description: as §1, §2, §3, §4

Syk = target: T5, Syk (Homo sapiens, UniProt P43405); assay: Other kinases, inhibition at 1 μM (Table 3)
T5 construct: purchased Caliper Life Sciences
Description: as §1, §2, §3, §4

VEGFR = assay: Other kinases, inhibition at 1 μM (Table 3)
Description: as §1, §2, §3, §4

CDK2/cyclinE(h) = target: T6, CDK2/cyclinE(h) (Homo sapiens, UniProt P24941); assay: Other kinases, single-concentration inhibition (Table 3); conditions: 1 μM
T6 construct: purchased Caliper Life Sciences
How it was run: (§5)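 Quench: 10 mM EDTA in 100 mM HEPES pH 7.5, 0.015% Brij-35, after 90 min at 25 °C. Before that, compound (single concentration) and kinase reacted with labelled peptide/ATP. Product/substrate peak ratio gave activity, expressed as % inhibition.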

EphB2(h) = target: T7, EphB2(h) (Homo sapiens, UniProt P29323); assay: as above; conditions: 1 μM
T7 construct: purchased Caliper Life Sciences
T7 sequence (P29323 19-1055): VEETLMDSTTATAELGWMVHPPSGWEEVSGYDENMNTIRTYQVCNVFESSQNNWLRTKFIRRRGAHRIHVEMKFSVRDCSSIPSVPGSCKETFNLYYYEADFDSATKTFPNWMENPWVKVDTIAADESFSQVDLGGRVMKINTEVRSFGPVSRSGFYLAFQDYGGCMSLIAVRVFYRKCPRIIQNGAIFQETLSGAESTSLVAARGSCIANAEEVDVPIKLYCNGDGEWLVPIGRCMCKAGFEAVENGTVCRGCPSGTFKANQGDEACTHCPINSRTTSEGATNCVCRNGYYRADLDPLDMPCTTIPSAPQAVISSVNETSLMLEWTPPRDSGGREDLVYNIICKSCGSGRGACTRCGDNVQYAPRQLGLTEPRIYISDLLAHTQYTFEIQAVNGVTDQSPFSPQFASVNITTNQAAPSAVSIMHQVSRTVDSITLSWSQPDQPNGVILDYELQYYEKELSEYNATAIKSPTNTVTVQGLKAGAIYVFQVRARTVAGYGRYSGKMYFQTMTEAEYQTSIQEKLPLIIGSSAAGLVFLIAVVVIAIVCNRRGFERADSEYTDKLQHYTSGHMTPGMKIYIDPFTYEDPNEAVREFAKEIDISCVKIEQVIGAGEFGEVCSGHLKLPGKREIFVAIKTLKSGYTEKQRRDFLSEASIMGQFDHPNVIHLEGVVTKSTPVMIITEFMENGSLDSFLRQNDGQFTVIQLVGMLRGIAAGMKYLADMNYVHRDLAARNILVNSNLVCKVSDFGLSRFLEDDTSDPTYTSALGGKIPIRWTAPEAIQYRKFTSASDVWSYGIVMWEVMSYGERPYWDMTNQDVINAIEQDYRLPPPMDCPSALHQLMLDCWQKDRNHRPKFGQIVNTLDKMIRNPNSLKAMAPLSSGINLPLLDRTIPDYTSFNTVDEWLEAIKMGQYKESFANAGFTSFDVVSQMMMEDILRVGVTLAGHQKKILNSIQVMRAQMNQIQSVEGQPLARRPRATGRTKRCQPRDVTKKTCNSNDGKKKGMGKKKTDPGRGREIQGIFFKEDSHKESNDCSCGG
How it was run: as §5

FAK(h) = target: T8, FAK(h) (Homo sapiens, UniProt Q05397); assay: as above; conditions: 1 μM
T8 construct: purchased Caliper Life Sciences
How it was run: as §5

MSK2(h) = target: T9, MSK2(h) (Homo sapiens, UniProt O75676); assay: as above; conditions: 1 μM
T9 construct: purchased Caliper Life Sciences
How it was run: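 Caliper mobility-shift kinase assay with labelled peptide and ATP at kinase-specific levels. 90 min, 25 °C, single compound dose.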

PDK1(h) = target: T10, PDK1(h) (Homo sapiens, UniProt O15530); assay: as above; conditions: 1 μM
T10 construct: purchased Caliper Life Sciences
T10 sequence (O15530 1-556): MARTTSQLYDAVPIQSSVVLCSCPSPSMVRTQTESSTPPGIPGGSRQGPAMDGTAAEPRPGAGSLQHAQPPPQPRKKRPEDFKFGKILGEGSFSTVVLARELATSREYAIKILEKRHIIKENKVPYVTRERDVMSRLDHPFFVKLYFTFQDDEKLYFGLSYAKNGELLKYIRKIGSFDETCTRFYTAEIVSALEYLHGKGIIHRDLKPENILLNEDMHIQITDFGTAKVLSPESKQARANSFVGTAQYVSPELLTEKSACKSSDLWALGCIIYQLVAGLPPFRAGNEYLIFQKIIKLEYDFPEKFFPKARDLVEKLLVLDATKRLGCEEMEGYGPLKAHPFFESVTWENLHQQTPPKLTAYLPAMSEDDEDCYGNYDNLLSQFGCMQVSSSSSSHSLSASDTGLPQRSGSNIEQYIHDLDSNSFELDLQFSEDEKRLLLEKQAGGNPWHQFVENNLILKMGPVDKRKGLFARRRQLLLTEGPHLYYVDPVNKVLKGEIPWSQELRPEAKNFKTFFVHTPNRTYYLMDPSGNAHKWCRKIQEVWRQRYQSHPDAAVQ
How it was run: as §5

Tie2(h) = target: T11, Tie2(h) (Homo sapiens, UniProt Q02763); assay: as above; conditions: 1 μM
T11 construct: purchased Caliper Life Sciences
How it was run: as §5

TrkB(h) = target: T12, TrkB(h) (Homo sapiens, UniProt Q16620); assay: as above; conditions: 1 μM
T12 construct: purchased Caliper Life Sciences
How it was run: as §5

T11 sequence (Q02763 23-1124): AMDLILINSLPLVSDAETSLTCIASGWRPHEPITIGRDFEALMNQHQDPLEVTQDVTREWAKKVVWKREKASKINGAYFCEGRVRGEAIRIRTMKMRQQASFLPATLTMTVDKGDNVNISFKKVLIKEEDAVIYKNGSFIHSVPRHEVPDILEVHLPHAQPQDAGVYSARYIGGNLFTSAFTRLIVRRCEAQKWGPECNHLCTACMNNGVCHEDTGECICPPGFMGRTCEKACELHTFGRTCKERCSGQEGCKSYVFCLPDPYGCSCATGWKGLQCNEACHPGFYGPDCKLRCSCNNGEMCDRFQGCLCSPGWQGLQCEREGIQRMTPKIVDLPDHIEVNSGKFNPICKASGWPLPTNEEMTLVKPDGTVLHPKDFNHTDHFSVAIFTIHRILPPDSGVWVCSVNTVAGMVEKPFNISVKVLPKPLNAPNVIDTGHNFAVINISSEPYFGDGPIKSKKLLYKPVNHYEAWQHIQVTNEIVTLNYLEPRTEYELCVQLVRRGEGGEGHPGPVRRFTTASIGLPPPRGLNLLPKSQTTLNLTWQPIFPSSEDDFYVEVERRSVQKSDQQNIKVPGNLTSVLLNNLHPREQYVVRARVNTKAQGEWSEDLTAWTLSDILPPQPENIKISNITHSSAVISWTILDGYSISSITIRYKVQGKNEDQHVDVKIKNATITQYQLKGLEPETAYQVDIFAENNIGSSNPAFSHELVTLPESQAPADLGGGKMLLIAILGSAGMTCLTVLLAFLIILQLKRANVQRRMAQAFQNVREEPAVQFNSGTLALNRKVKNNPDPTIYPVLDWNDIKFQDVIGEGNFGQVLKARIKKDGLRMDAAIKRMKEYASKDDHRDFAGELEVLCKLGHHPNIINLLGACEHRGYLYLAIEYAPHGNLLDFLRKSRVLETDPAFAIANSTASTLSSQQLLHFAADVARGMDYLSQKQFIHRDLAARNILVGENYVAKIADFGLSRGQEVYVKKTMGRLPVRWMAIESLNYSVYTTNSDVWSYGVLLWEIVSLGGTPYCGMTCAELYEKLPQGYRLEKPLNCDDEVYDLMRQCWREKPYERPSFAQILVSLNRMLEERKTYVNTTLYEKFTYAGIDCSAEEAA
T12 sequence (Q16620 32-822): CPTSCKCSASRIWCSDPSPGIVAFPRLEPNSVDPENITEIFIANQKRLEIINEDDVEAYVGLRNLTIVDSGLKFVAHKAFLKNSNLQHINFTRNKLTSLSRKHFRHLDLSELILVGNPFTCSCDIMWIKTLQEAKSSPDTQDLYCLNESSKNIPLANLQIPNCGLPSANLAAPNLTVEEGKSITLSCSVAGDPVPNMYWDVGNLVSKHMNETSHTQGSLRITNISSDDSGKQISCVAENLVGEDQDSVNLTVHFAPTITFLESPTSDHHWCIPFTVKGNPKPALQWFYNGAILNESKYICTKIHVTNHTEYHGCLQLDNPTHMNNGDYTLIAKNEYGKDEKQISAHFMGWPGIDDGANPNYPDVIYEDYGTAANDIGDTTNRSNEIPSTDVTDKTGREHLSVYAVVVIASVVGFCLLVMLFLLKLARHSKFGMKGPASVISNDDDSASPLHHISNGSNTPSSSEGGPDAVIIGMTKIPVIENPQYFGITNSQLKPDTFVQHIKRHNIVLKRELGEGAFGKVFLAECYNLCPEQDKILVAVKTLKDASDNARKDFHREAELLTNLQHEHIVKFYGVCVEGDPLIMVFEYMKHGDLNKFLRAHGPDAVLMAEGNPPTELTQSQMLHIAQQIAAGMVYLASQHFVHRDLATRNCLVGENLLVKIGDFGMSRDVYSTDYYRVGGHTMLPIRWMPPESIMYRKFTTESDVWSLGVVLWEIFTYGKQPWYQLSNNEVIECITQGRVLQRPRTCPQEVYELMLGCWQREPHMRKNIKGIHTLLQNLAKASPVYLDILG
T1 sequence (O43781 whole entry, species assumed): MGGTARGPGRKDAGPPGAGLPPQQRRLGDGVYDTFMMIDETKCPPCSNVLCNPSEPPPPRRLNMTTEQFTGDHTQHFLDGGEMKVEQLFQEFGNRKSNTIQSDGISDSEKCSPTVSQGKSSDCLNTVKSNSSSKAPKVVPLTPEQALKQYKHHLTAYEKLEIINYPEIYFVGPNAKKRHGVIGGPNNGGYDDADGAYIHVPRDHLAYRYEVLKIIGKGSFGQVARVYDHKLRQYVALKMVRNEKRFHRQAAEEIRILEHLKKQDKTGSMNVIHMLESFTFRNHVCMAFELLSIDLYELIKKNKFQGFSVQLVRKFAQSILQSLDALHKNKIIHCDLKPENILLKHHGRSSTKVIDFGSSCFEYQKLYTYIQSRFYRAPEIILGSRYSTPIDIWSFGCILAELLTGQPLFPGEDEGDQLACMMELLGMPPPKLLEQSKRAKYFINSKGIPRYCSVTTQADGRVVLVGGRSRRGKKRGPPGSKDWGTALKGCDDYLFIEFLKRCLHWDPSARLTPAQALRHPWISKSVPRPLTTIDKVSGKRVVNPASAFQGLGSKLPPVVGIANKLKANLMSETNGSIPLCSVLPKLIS
T3 sequence (Q02750 whole entry, species assumed): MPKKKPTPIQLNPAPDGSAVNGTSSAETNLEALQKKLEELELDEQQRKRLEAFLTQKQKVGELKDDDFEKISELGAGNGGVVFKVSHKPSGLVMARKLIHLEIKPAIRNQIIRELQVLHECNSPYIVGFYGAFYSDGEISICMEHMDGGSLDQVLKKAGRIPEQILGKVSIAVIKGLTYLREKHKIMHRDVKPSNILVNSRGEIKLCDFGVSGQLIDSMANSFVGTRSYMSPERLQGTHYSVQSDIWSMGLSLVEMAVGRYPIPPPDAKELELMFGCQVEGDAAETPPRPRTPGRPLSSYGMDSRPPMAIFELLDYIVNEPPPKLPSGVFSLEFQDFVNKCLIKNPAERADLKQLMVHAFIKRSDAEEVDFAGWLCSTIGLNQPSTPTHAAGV
T4 sequence (Q16513 whole entry, species assumed): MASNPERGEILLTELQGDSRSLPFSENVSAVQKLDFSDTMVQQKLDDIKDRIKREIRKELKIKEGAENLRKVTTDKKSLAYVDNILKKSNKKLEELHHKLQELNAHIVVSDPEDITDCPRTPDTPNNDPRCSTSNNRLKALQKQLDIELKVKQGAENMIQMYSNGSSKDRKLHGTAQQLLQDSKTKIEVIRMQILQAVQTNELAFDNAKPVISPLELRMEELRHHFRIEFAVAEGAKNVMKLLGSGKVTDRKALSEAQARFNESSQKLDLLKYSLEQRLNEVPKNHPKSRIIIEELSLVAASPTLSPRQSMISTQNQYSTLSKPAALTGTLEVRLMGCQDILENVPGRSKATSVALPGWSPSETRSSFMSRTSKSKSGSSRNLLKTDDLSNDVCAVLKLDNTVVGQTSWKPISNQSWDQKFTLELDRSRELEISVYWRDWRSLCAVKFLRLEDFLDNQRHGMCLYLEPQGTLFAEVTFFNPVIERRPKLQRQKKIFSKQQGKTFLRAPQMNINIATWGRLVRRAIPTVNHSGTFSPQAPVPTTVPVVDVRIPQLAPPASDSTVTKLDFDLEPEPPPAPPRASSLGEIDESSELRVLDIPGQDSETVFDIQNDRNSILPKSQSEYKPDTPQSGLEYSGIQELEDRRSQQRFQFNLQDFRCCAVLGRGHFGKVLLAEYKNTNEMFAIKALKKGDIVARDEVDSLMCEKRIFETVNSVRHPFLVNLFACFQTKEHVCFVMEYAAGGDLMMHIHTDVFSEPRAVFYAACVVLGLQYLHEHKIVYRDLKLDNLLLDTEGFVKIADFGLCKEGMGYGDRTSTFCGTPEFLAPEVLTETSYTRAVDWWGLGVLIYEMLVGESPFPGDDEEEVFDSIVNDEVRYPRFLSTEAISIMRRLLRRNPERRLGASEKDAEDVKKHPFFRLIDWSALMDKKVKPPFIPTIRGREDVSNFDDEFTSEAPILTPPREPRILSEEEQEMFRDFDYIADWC
T9 sequence (O75676 whole entry): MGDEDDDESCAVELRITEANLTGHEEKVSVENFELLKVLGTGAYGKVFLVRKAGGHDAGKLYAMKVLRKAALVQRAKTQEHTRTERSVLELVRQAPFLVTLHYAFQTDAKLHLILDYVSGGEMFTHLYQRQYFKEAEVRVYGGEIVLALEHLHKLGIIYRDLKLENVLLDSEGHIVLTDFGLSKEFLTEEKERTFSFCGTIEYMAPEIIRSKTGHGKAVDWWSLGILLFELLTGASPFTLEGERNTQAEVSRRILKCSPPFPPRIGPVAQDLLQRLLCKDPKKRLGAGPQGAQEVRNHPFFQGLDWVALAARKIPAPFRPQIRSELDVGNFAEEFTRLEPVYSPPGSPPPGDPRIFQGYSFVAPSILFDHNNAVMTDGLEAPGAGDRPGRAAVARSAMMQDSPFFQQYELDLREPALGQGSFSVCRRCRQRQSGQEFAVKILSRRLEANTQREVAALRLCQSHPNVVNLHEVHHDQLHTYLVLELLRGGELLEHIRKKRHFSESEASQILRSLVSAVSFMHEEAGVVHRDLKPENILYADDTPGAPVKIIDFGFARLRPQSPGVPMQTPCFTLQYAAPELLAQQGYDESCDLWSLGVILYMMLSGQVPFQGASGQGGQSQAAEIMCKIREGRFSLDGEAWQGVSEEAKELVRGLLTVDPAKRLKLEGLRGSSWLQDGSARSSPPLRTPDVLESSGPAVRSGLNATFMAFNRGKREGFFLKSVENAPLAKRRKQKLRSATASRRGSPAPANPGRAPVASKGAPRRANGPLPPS

Q: What does the source list for `NC(=O)[C@H]1[C@H]2C[C@H]3[C@H]1Nc1nc(ncc1F)Nc1cccc(c1)CSS[C@@H]3C2` [Example 10]?
A: inhibition at 1 µM (DYRK3): 78%; inhibition at 1 µM (FGFR1): 10%; % inhibition MKK1 (MKK1): 13%; inhibition at 1 µM (PRK2): 43%; inhibition at 1 µM (Syk): 52%; % inhibition VEGFR (VEGFR): 15%; % inhibition CDK2/cyclinE(h) (CDK2/cyclinE(h)): 23%; % inhibition EphB2(h) (EphB2(h)): 5%; % inhibition FAK(h) (FAK(h)): 3%; % inhibition MSK2(h) (MSK2(h)): 3%; % inhibition PDK1(h) (PDK1(h)): 96%; % inhibition Tie2(h) (Tie2(h)): 101%; % inhibition TrkB(h) (TrkB(h)): 1%
